Patent US20250049765A1, “BICYCLO [3.2.0] HEPTANE BIS(AMIDE) RXFP1 AGONISTS” (BRISTOL-MYERS SQUIBB COMPANY, priority 2021, published 2025)
pEC50: −log10 of the molar value.

target: human RXFP1 (Homo sapiens (Human), UniProt Q9HBX9); assay: hRXFP1 HEK293 cAMP assay; format: cell-based; conditions: HEK293 cells stably expressing human RXFP1; 30 min at room temperature; HTRF cAMP
Procedure: RXFP1 Cyclic Adenosine Monophosphate (CAMP) Assays. Human embryonic kidney cells 293 (HEK293) cells and HEK293 cells stably expressing human RXFP1, were cultured in MEM medium supplemented with 10% qualified FBS, and 300 μg/ml hygromycin (Life Technologies). Cells were dissociated and suspended in assay buffer. The assay buffer was HBSS buffer (with calcium and magnesium) containing 20 mM HEPES, 0.05% BSA, and 0.5 mM IBMX. Cells (3000 cells per well, except 1500 cell per well for HEK293 cells stably expressing human RXFP1) were added to 384-well Proxiplates (Perkin-Elmer). Cells were immediately treated with test compounds in DMSO (2% final) at final concentrations in the range of 0.010 nM to 50 μM. Cells were incubated for 30 min at room temperature. The level of intracellular cAMP was determined using the HTRF HiRange CAMP assay reagent kit (Cisbio) according to manufacturer's instructions. Solutions of cryptate conjugated anti-cAMP and d2 fluorophore-labelled cAMP were made in a supplied lysis buffer separately. Upon completion of the reaction, the cells were lysed with equal volume of the d2-cAMP solution and anti-cAMP solution. After a 1 h room temperature incubation, time-resolved fluorescence intensity was measured using the Envision (Perkin-Elmer) at 400 nm excitation and dual emission at 590 nm and 665 nm. A calibration curve was constructed with an external cAMP standard at concentrations ranging from 2.7 μM to 0.1 μM by plotting the fluorescent intensity ratio from 665 nm emission to the intensity from the 590 nm emission against cAMP concentrations. The potency and activity of a compound to […] cAMP production was then determined by fitting to a 4-parametric logistic equation from a plot of cAMP level versus compound concentrations.
The examples disclosed below were tested in the human RXFP1 (hRXFP1) HEK293 cAMP assay described above and found to have agonist activity. Table A lists EC50 values in the hRXFP1 HEK293 cAMP assay measured for the examples.

Chain of human RXFP1 (Q9HBX9 whole entry): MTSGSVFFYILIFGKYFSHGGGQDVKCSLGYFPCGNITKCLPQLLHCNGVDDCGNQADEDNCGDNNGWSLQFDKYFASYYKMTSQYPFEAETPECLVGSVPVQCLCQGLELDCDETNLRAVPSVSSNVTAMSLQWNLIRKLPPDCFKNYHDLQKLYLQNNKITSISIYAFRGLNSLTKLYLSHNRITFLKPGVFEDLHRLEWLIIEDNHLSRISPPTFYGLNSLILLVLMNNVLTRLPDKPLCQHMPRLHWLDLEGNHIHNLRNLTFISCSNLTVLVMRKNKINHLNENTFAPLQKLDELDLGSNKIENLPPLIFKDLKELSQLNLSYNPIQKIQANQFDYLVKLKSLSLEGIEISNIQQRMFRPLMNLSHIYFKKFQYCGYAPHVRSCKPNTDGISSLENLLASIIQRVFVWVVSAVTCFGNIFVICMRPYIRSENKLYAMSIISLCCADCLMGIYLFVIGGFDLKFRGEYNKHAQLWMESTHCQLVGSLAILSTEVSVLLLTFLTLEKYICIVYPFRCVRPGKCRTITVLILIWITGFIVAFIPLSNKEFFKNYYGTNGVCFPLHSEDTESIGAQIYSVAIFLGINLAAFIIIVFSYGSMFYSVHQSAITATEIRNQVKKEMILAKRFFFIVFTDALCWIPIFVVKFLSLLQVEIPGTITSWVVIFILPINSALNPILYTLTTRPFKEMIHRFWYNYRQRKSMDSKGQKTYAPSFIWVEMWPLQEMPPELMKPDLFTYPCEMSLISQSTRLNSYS

pEC50 | Compound
6.08 | COc1ccc(C#CCO)cc1C(=O)N[C@H]1[C@@H]2CCC[C@@H]2[C@H]1C(=O)Nc1ccc(F)c(C(F)(F)F)c1 [Example 2, (1R,5S,6R,7S)—N-(4-fluoro-3-(trifluoromethyl)phenyl)-7-(5-(3-hydroxyprop-1-yn-1-yl)-2-methoxybenzamido) bicyclo[3.2.0]heptane-6-carboxamide]
5.65 | COc1ccc(C2=NOC(CO)C2)cc1C(=O)NC1C2CCCC2C1C(=O)Nc1ccc(F)c(C(F)(F)F)c1 [Example 5, (1R,5S,6R,7S)-N-(4-fluoro-3-(tri-fluoromethyl)-phenyl)-7-(5-(5-(hydroxymethyl)-4,5-dihydroisox-azol-3-yl)-2-meth-oxybenzamido)-bicyclo[3.2.0] heptane-6-carbox-amide]
7.92 | COc1ccc(-c2cc(C(OC(=O)Nc3ccccc3)C(=O)O)ccc2F)cc1C(=O)N[C@H]1[C@@H]2CCC[C@@H]2[C@H]1C(=O)Nc1ccc(F)c(C(F)(F)F)c1 (stereo partly drawn) [Example 7, 2-(6-fluoro-3′-(((1S,5R,6S,7R)-7-((4-fluoro-3-(trifluoromethyl)phenyl)carbamoyl)bicyclo[3.2.0]heptan-6-yl)carbamoyl)-4′-methoxy-[1,1′-biphenyl]-3-yl)-2-((phenylcarbamoyl)oxy) acetic acid]
6.04 | COc1ccc(C2=NOC3CC(O)CC23)cc1C(=O)NC1C2CCCC2C1C(=O)Nc1ccc(F)c(C(F)(F)F)c1 [Example 3, (1R,5S,6R,7S)-N-(4-fluoro-3-(tri-fluoromethyl)-phenyl)-7-(5-(5-hydroxy-3a,5,6,6a-tetrahydro-4H-cyclopenta[d]isox-azol-3-yl)-2-meth-oxybenzamido)-bicyclo[3.2.0] heptane-6-carbox-amide]
5.92 | COc1ccc(-c2cc(C(=O)O)ccc2F)cc1C(=O)N[C@H]1[C@@H]2CCC[C@@H]2[C@H]1C(=O)Nc1ccc(F)c(C(F)(F)F)c1 [Example 1, 6-fluoro-3′-(((1S,5R,6S,7R)-7-((4-fluoro-3-(trifluoromethyl)phenyl)carbamoyl)bicyclo[3.2.0]heptan-6-yl)carbamoyl)-4′-methoxy-[1,1′-biphenyl]-3-carboxylic acid]

system: not given; assay: not given; conditions: intravenous (IV) formulation; cited from earlier work

Compound | first-phase pharmacokinetic half-life [min]
Serelaxin | 5.4
